From patent publication US10023558B2, “Compounds” (CHIESI FARMACEUTICI S.P.A., priority 2016, dated 2018) come the findings set out here.

For orientation: IC50 means the point on the concentration scale where inhibition reaches its midpoint.

This assay concerns the target T1, human neutrophil elastase (HNE) (Homo sapiens, UniProt P08246).
T1 construct: purchased Sigma E8140
T1 sequence (P08246 30-247 limits assumed): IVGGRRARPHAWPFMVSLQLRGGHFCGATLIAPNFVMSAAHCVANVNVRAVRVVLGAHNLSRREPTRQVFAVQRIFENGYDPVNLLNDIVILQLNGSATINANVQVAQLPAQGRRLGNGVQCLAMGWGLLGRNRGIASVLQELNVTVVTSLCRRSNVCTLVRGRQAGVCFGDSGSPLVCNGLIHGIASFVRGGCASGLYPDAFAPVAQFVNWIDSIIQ
Briefly: HNE Enzyme Assay (fluorogenic peptide substrate MeOSuc-Ala-Ala-Pro-Val-AMC). The following applies: human leukocyte elastase 0.00072 U/mL, substrate 100 μM, 25° C., 30 minutes, at least two separate experiments; read-out: HNE inhibition (IC50 values). The format is biochemical. The method, boiled down: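 Human leukocyte elastase (0.00072 U/mL) with 100 μM MeOSuc-AAPV-AMC in Tris pH 7.5 buffer with NaCl, CaCl2, Brij-35, 1% DMSO, 30 min at 25° C, stopped with soybean trypsin inhibitor. AMC fluorescence (ex 380/em 460 nm); IC50 from concentration-response as % inhibition of control, at least two experiments.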
Regarding `Cc1c(-c2ccnn2-c2ccc(C#N)cc2)n(C(=O)N[C@@H](C)C(=O)N2CCC([N+](C)(C)Cc3ccccc3)CC2)c(=O)n1-c1cccc(C(F)(F)F)c1` [Example 70, Benzyl-[1-((S)-2-{[5-[2-(4-cyano-phenyl)-2H-pyrazol-3-yl]-4-methyl-2-oxo-3-(3-trifluoromethyl-phenyl)-2,3-dihydro-imidazole-1-carbonyl]-amino}-propionyl)-piperidin-4-yl]-dimethyl-ammonium bromide], the IC50 was less than 1 nM.
On to `Cc1c(-c2ccnn2-c2ccc(C#N)cc2)n(C(=O)N[C@@H](C)C(=O)N(C)CC[N+](C)(C)C)c(=O)n1-c1cccc(C(F)(F)F)c1` [Example 71, {2-[((S)-2-{[5-[2-(4-Cyano-phenyl)-2H-pyrazol-3-yl]-4-methyl-2-oxo-3-(3-trifluoromethyl-phenyl)-2,3-dihydro-imidazole-1-carbonyl]-amino}-propionyl)-methyl-amino]-ethyl}-trimethyl-ammonium benzene sulfonate], for which the IC50 is less than 1 nM.
As for `Cc1c(-c2ccnn2-c2ccc(C#N)cc2)n(C(=O)N[C@H]2CC[C@H]([N+](C)(C)Cc3ncon3)CC2)c(=O)n1-c1cccc(C(F)(F)F)c1` [Example 72, (Trans-4-{[5-[2-(4-cyano-phenyl)-2H-pyrazol-3-yl]-4-methyl-2-oxo-3-(3-trifluoromethyl-phenyl)-2,3-dihydro-imidazole-1-carbonyl]-amino}-cyclohexyl)-dimethyl-[1,2,4]oxadiazol-3-ylmethyl-amnionium chloride], the IC50 was less than 1 nM.
Consider `Cc1c(-c2ccnn2-c2ccc(C#N)cc2)n(C(=O)N[C@H](c2ncc(C[N+](C)(C)C)o2)C(C)C)c(=O)n1-c1cccc(C(F)(F)F)c1` [Example 73, [2-((S)-1-{[5-[2-(4-Cyano-phenyl)-2H-pyrazol-3-yl]-4-methyl-2-oxo-3-(3-trifluoromethyl-phenyl)-2,3-dihydro-imidazole-1-carbonyl]-amino}-2-methyl-propyl)-oxazol-5-ylmethyl]-trimethyl-ammonium benzene sulfonate], for which the IC50 was less than 1 nM.
The result for `CC[C@H](NC(=O)n1c(-c2ccnn2-c2ccc(C#N)cc2)c(C)n(-c2cccc(C(F)(F)F)c2)c1=O)c1ncc(C[N+](C)(C)C)o1` [Example 74, [2-((S)-1-{[5-[2-(4-Cyano-phenyl)-2H-pyrazol-3-yl]-4-methyl-2-oxo-3-(3-trifluoromethyl-phenyl)-2,3-dihydro-imidazole-1-carbonyl]-amino}-propyl)-oxazol-5-ylmethyl]-trimethyl-ammonium benzene sulfonate] reads less than 1 nM; that for `Cc1cc(C[N+](C)(C)[C@H]2CC[C@H](NC(=O)n3c(-c4ccnn4-c4ccc(C#N)cc4)c(C)n(-c4cccc(C(F)(F)F)c4)c3=O)CC2)no1` [Example 75, (4-{[5-[2-(4-Cyano-phenyl)-2H-pyrazol-3-yl]-4-methyl-2-oxo-3-(3-trifluoromethyl-phenyl)-2,3-dihydro-imidazole-1-carbonyl]-amino}-cyclohexyl)-dimethyl-(5-methyl-isoxazol-3-ylmethyl)-ammonium chloride], less than 1 nM; that for `Cc1cc(C[N+](C)(C)[C@H]2CC[C@H](NC(=O)n3c(-c4ccnn4-c4ccc(C#N)cc4)c(C)n(-c4cccc(C(F)(F)F)c4)c3=O)CC2)n(C)n1` [Example 76, (4-{[5-[2-(4-Cyano-phenyl)-2H-pyrazol-3-yl]-4-methyl-2-oxo-3-(3-trifluoromethyl-phenyl)-2,3-dihydro-imidazole-1-carbonyl]-amino}-cyclohexyl)-(2,5-dimethyl-2H-pyrazol-3-ylmethyl)-dimethyl-ammonium chloride], less than 1 nM.
Regarding `Cc1c(-c2ccnn2-c2ccc(C#N)cc2)n(C(=O)N[C@H]2CC[C@H](C(=O)NCC[N+](C)(C)C)CC2)c(=O)n1-c1cccc(C(F)(F)F)c1` [Example 77, {2-[(Trans-4-{[5-[2-(4-cyano-phenyl)-2H-pyrazol-3-yl]-4-methyl-2-oxo-3-(3-trifluoromethyl-phenyl)-2,3-dihydro-imidazole-1-carbonyl]-amino}-cyclohexanecarbonyl)-amino]-ethyl}-trimethyl-ammonium benzene sulfonate], the IC50 was less than 1 nM.
With `Cc1c(-c2ccnn2-c2ccc(C#N)cc2)n(C(=O)NC(C)(C)c2ncc(C[N+](C)(C)C)o2)c(=O)n1-c1cccc(C(F)(F)F)c1` [Example 78, [2-(1-{[5-[2-(4-Cyano-phenyl)-2H-pyrazol-3-yl]-4-methyl-2-oxo-3-(3-trifluoromethyl-phenyl)-2,3-dihydro-imidazole-1-carbonyl]-amino}-1-methyl-ethyl)-oxazol-5-ylmethyl]-trimethyl-ammonium benzene sulfonate], the concentration for half-maximal inhibition (IC50) was less than 1 nM.
With `Cc1c(-c2ccnn2-c2ccc(C#N)cc2)n(C(=O)NC2(c3ncc(C[N+](C)(C)C)o3)CC2)c(=O)n1-c1cccc(C(F)(F)F)c1` [Example 79, [2-(1-{[5-[2-(4-Cyano-phenyl)-2H-pyrazol-3-yl]-4-methyl-2-oxo-3-(3-trifluoromethyl-phenyl)-2,3-dihydro-imidazole-1-carbonyl]-amino}-cyclopropyl)-oxazol-5-ylmethyl]-trimethyl-ammonium benzene sulfonate], the IC50 was less than 1 nM.
As for `Cc1c(-c2ccnn2-c2ccc(C#N)cc2)n(C(=O)N[C@H]2CC[C@@H](C(=O)NCC[N+](C)(C)C)CC2)c(=O)n1-c1cccc(C(F)(F)F)c1` [Example 80, {2-[(Cis-4-{[5-[2-(4-cyano-phenyl)-2H-pyrazol-3-yl]-4-methyl-2-oxo-3-(3-trifluoromethyl-phenyl)-2,3-dihydro-imidazole-1-carbonyl]-amino}-cyclohexanecarbonyl)-amino]-ethyl}-trimethyl-ammonium benzene sulfonate], the IC50 is 1 to 10 nM.
For `Cc1c(-c2ccnn2-c2ccc(C#N)cc2)n(C(=O)N[C@H]2CC[C@H](C(=O)OCC[N+](C)(C)C)CC2)c(=O)n1-c1cccc(C(F)(F)F)c1` [Example 82, [2-(Trans-4-{[5-[2-(4-cyano-phenyl)-2H-pyrazol-3-yl]-4-methyl-2-oxo-3-(3-trifluoromethyl-phenyl)-2,3-dihydro-imidazole-1-carbonyl]-amino}-cyclohexanecarbonyloxy)-ethyl]-trimethyl-ammonium benzene sulfonate], the IC50 was less than 1 nM.
With `Cc1c(-c2ccnn2-c2ccc(C#N)cc2)n(C(=O)N[C@H]2C[C@H](C(=O)NCC[N+](C)(C)C)C2)c(=O)n1-c1cccc(C(F)(F)F)c1` [Example 83, {2-[(Trans-3-{[5-[2-(4-cyano-phenyl)-2H-pyrazol-3-yl]-4-methyl-2-oxo-3-(3-trifluoromethyl-phenyl)-2,3-dihydro-imidazole-1-carbonyl]-amino}-cyclobutanecarbonyl)-amino]-ethyl}-trimethyl-ammonium benzene sulfonate], the IC50 is less than 1 nM.
With `Cc1c(-c2ccnn2-c2ccc(C#N)cc2)n(C(=O)NC2(C)CCN(C(=O)C[N+](C)(C)C)CC2)c(=O)n1-c1cccc(C(F)(F)F)c1` [Example 84, [2-(4-{[5-[2-(4-Cyano-phenyl)-2H-pyrazol-3-yl]-4-methyl-2-oxo-3-(3-trifluoromethyl-phenyl)-2,3-dihydro-imidazole-1-carbonyl]-amino}-4-methyl-piperidin-1-yl)-2-oxo-ethyl]-trimethyl-ammonium benzene sulfonate], the concentration for half-maximal inhibition (IC50) is less than 1 nM.
As for `Cc1c(-c2ccnn2-c2ccc(C#N)cc2)n(C(=O)N[C@H]2CC[C@H](CNC(=O)C[N+](C)(C)C)CC2)c(=O)n1-c1cccc(C(F)(F)F)c1` [Example 86, {[(Trans-4-{[5-[2-(4-cyano-phenyl)-2H-pyrazol-3-yl]-4-methyl-2-oxo-3-(3-trifluoromethyl-phenyl)-2,3-dihydro-imidazole-1-carbonyl]-amino}-cyclohexylmethyl)-carbamoyl]-methyl}-trimethyl-ammonium benzene sulfonate], the IC50 was less than 1 nM.
For the compound `Cc1c(-c2ccnn2-c2ccc(C#N)cc2)n(C(=O)N[C@H]2CC[C@H](NC(=O)C[N+](C)(C)C)CC2)c(=O)n1-c1cccc(C(F)(F)F)c1` [Example 87, [(Trans-4-{[5-[2-(4-cyano-phenyl)-2H-pyrazol-3-yl]-4-methyl-2-oxo-3-(3-trifluoromethyl-phenyl)-2,3-dihydro-imidazole-1-carbonyl]-amino}-cyclohexylcarbamoyl)-methyl]-trimethyl-ammonium benzene sulfonate], the IC50 is less than 1 nM.
Consider `Cc1c(-c2ccnn2-c2ccc(C#N)cc2)n(C(=O)N[C@H]2CC[C@H](C(=O)N3CCC([N+](C)(C)C)CC3)CC2)c(=O)n1-c1cccc(C(F)(F)F)c1` [Example 88, [1-(Trans-4-{[5-[2-(4-cyano-phenyl)-2H-pyrazol-3-yl]-4-methyl-2-oxo-3-(3-trifiuoromethyl-phenyl)-2,3-dihydro-imidazole-1-carbonyl]-amino}-cyclohexanecarbonyl)-piperidin-4-yl]-trimethyl-ammonium benzene sulfonate], for which the IC50 is less than 1 nM.
Regarding `Cc1c(-c2ccnn2-c2ccc(C#N)cc2)n(C(=O)N[C@H]2CC[C@H](C(=O)N(C)CC[N+](C)(C)C)CC2)c(=O)n1-c1cccc(C(F)(F)F)c1` [Example 89, {2-[(Trans-4-{[5-[2-(4-cyano-phenyl)-2H-pyrazol-3-yl]-4-methyl-2-oxo-3-(3-trifluoromethyl-phenyl)-2,3-dihydro-imidazole-1-carbonyl]-amino}-cyclohexanecarbonyl)-methyl-amino]-ethyl}-trimethyl-ammonium benzene sulfonate], the IC50 was less than 1 nM.
